# Measurements: EP0406685A1, “Substituted polysaccharides, method for their preparation as well as their use in prophylaxis and treatment of viral diseases” (HOECHST AKTIENGESELLSCHAFT, priority 1989, dated 1991)
# Tested on: Friend Leukämie Virus
# Test: FLV model of the mouse (Friend leukaemia virus infection, relative spleen weight)
# Format: in vivo
# Settings: i.p.; for rel.Milzgewicht in % Körpergew.: start 2 days after infection, spleen 14 days after infection
# Text: Da für die HIV-Infektion des Menschen kein überzeugendes Infektionsmodell bei Labortieren existiert, muß bei der Prüfung von Chemotherapeutika auf Infektionen mit anderen Retroviren zurückgegriffen werden. Im vorliegenden Falle wurde die Infektion der Maus mit dem Friend Leukämie Virus gewählt.
# Normale Labormäuse (NMRI = Naval Medical Research Institute) wurden durch intravenöse Injektion mit Friend-Virus enthaltendem Mäuseserum infiziert. Bei den unbehandelten Kontrolltieren entwickelt sich als Symptom der Infektion innerhalb von 2 Wochen bzw. 3 Wochen eine deutliche Vergrößerung von Milz und Leber. Die Behandlung erfolgt über 10 Tage bei intraperitonealer Applikation und über 16 Tage bei oraler Applikation der Testsubstanzen. Bei intraperitonealer Gabe der Testsubstanzen beginnt die Behandlung 48 Stunden nach der Infektion, bei peroraler Gabe der Testsubstanz 4 Tage vor der Infektion. Am 14. Tag nach Infektion werden die Tiere durch Luxation der Halswirbel getötet und geöffnet. Die Milz wird entnommen und gewogen. Als Meßparameter der therapeutischen Wirksamkeit wird das Milzgewicht der behandelten Tiere mit den der unbehandelten Infektionskontrolle in Relation gesetzt.
# Für die orale Applikation werden die Prüfsubstanzen in Trinkwasser gelöst. Alle 24 Stunden werden die Trinkwasserbehälter mit jeweils 100 ml Inhalt gewechselt. Aus dem täglich ermittelten Verbrauch an Trinkwasser pro Versuchskollektiv wird die durchschnittliche Dosismenge errechnet, die einer Maus pro 24 Stunden appliziert wurde.
# Während bei uninfizierten, ausgewachsenen Labormäusen (20 - 24 g Körpergewicht) die Milz weniger als 1 % des Körpergewichtes wiegt, erreicht bei infizierten Tieren die Milz am Ende des Versuchs etwa bis zu 10 % des Körpergewichtes.
# Als Vergleichspräparate dienen Suramin (= 3,3′-Ureylen-bis-(8-(3-benzamido-4-methylbenzamido)-naphthalin-1,3,5-trisulfonsäure|) bei intraperitonealer Gabe bzw. Pentosanpolysulfat bei intraperitonealer und oraler Gabe.
compound,measurement,setting,value
"Cc1ccc(C(=O)Nc2ccc(S(=O)(=O)O)c3cc(S(=O)(=O)O)cc(S(=O)(=O)O)c23)cc1NC(=O)c1cccc(NC(=O)Nc2cccc(C(=O)Nc3cc(C(=O)Nc4ccc(S(=O)(=O)O)c5cc(S(=O)(=O)O)cc(S(=O)(=O)O)c45)ccc3C)c2)c1 [Suramin, 3,3′-Ureylen-bis-(8-(3-benzamido-4-methylbenzamido)-naphthalin-1,3,5-trisulfonsäure|)]",rel.Milzgewicht in % Körpergew.,"10 x 0,1 mg/Maus, second series (Kontrolle 7,25)","5,68 % Körpergew."
same,Anzahl überlebender Mäuse n,"10 x 0,1 mg/Maus, second series (Kontrolle 10)",10
same,rel.Milzgewicht in % Körpergew.,"10 x 1,0 mg/Maus, first series (Kontrolle 6,41)","4,96 % Körpergew."
same,Anzahl überlebender Mäuse n,"10 x 1,0 mg/Maus, first series (Kontrolle 10)",10
